This passage reports mutagenic call results from PubChem BioAssay AID1259407 (Chemical Carcinogenesis Research Information System (CCRIS), 2018).

Structures are written as SMILES. Active and inactive are the calls of the source. No rule for the calls is given here.

The data set concerns CCRIS mutagenicity, Ames/micronucleus/aberration tests. Kind of data set: CCRIS mutagenicity studies. To be noted: Method: PREINCUBATION
Setting [1] is: Test System: AMES SALMONELLA TYPHIMURIUM, Strain/Indicator: TA1535, Metabolic Activation: NONE.
The mark [2] stands for this setting: Test System: AMES SALMONELLA TYPHIMURIUM, Strain/Indicator: TA1537, Metabolic Activation: NONE.
Where [3] appears, read: Test System: AMES SALMONELLA TYPHIMURIUM, Strain/Indicator: TA98, Metabolic Activation: NONE.

Consider `C[n+]1c2ccccc2cc2cc(N)ccc21`, for which the mutagenic call by setting is: under setting [1], “inactive; negative”; (Test System: AMES SALMONELLA TYPHIMURIUM, Strain/Indicator: TA1535, Metabolic Activation: RAT, LIVER, S-9, TETRACHLOROBIPHENYL) “inactive; negative”; under setting [2], “active; positive”; (Test System: AMES SALMONELLA TYPHIMURIUM, Strain/Indicator: TA1537, Metabolic Activation: RAT, LIVER, S-9, TETRACHLOROBIPHENYL) “active; positive”; (Test System: AMES SALMONELLA TYPHIMURIUM, Strain/Indicator: TA1538, Metabolic Activation: NONE) “active; positive”; (Test System: AMES SALMONELLA TYPHIMURIUM, Strain/Indicator: TA1538, Metabolic Activation: RAT, LIVER, S-9, TETRACHLOROBIPHENYL) “active; positive”. Moreover, the mutagenic call is “active; positive” (Test System: AMES SALMONELLA TYPHIMURIUM, Strain/Indicator: TA1977, Metabolic Activation: NONE); “active; positive” (Test System: AMES SALMONELLA TYPHIMURIUM, Strain/Indicator: TA1977, Metabolic Activation: RAT, LIVER, S-9, TETRACHLOROBIPHENYL); “active; positive” (Test System: AMES SALMONELLA TYPHIMURIUM, Strain/Indicator: TA1978, Metabolic Activation: NONE); “active; positive” (Test System: AMES SALMONELLA TYPHIMURIUM, Strain/Indicator: TA1978, Metabolic Activation: RAT, LIVER, S-9, TETRACHLOROBIPHENYL).

Regarding `O=[N+]([O-])c1ccc2c(c1)Cc1cccc(O)c1-2`, the mutagenic call was “active; positive” under setting [3] and “active; positive” (Test System: AMES SALMONELLA TYPHIMURIUM, Strain/Indicator: TA98, Metabolic Activation: S-9).

Turning to `O=C(O)c1ccc2c(c1)C(=O)OC2=O`, the mutagenic call by setting is: (Test System: AMES SALMONELLA TYPHIMURIUM, Strain/Indicator: TA98, Metabolic Activation: HAMSTER, LIVER, S-9, AROCLOR 1254 (10%)) “inactive; negative”; under setting [3], “inactive; negative”; (Test System: AMES SALMONELLA TYPHIMURIUM, Strain/Indicator: TA98, Metabolic Activation: RAT LIVER S-9, PHENOBARBITAL AND BETA-NAPHTHOFLAVONE) “inactive; negative”; (Test System: AMES SALMONELLA TYPHIMURIUM, Strain/Indicator: TA98, Metabolic Activation: RAT, LIVER, S-9, AROCLOR 1254 (10%)) “inactive; negative”; (Test System: AMES SALMONELLA TYPHIMURIUM, Strain/Indicator: TA100, Metabolic Activation: HAMSTER, LIVER, S-9, AROCLOR 1254 (10%)) “inactive; negative”; (Test System: AMES SALMONELLA TYPHIMURIUM, Strain/Indicator: TA100, Metabolic Activation: NONE) “inactive; negative”. In addition, the mutagenic call (Test System: AMES SALMONELLA TYPHIMURIUM, Strain/Indicator: TA100, Metabolic Activation: RAT LIVER S-9, PHENOBARBITAL AND BETA-NAPHTHOFLAVONE) is “inactive; negative”; the mutagenic call (Test System: AMES SALMONELLA TYPHIMURIUM, Strain/Indicator: TA100, Metabolic Activation: RAT, LIVER, S-9, AROCLOR 1254 (10%)) was “inactive; negative”; the mutagenic call (Test System: AMES SALMONELLA TYPHIMURIUM, Strain/Indicator: TA102, Metabolic Activation: NONE) is “inactive; negative”; the mutagenic call (Test System: AMES SALMONELLA TYPHIMURIUM, Strain/Indicator: TA102, Metabolic Activation: RAT LIVER S-9, PHENOBARBITAL AND BETA-NAPHTHOFLAVONE) is “inactive; negative”; the mutagenic call (Test System: AMES SALMONELLA TYPHIMURIUM, Strain/Indicator: TA104, Metabolic Activation: NONE) is “inactive; negative”; the mutagenic call (Test System: AMES SALMONELLA TYPHIMURIUM, Strain/Indicator: TA104, Metabolic Activation: RAT LIVER S-9, PHENOBARBITAL AND BETA-NAPHTHOFLAVONE) was “inactive; negative”. In addition, the mutagenic call reads like this: (Test System: AMES SALMONELLA TYPHIMURIUM, Strain/Indicator: TA1535, Metabolic Activation: HAMSTER, LIVER, S-9, AROCLOR 1254 (10%)) “inactive; negative”; under setting [1], “inactive; negative”; (Test System: AMES SALMONELLA TYPHIMURIUM, Strain/Indicator: TA1535, Metabolic Activation: RAT LIVER S-9, PHENOBARBITAL AND BETA-NAPHTHOFLAVONE) “inactive; negative”; (Test System: AMES SALMONELLA TYPHIMURIUM, Strain/Indicator: TA1535, Metabolic Activation: RAT, LIVER, S-9, AROCLOR 1254 (10%)) “inactive; negative”; (Test System: AMES SALMONELLA TYPHIMURIUM, Strain/Indicator: TA1537, Metabolic Activation: HAMSTER, LIVER, S-9, AROCLOR 1254 (10%)) “inactive; negative”; under setting [2], “inactive; negative”. Moreover, the mutagenic call (Test System: AMES SALMONELLA TYPHIMURIUM, Strain/Indicator: TA1537, Metabolic Activation: RAT LIVER S-9, PHENOBARBITAL AND BETA-NAPHTHOFLAVONE) is “inactive; negative”; the mutagenic call (Test System: AMES SALMONELLA TYPHIMURIUM, Strain/Indicator: TA1537, Metabolic Activation: RAT, LIVER, S-9, AROCLOR 1254 (10%)) is “inactive; negative”; the mutagenic call (Test System: E.COLI, Strain/Indicator: WP2UVRA/PKM101, Metabolic Activation: NONE) is “inactive; negative”; the mutagenic call (Test System: E.COLI, Strain/Indicator: WP2UVRA/PKM101, Metabolic Activation: RAT LIVER S-9, PHENOBARBITAL AND BETA-NAPHTHOFLAVONE) is “inactive; negative”; the mutagenic call (Test System: E.COLI, Strain/Indicator: WP2UVRA, Metabolic Activation: NONE) is “inactive; negative”; the mutagenic call (Test System: E.COLI, Strain/Indicator: WP2UVRA, Metabolic Activation: RAT LIVER S-9, PHENOBARBITAL AND BETA-NAPHTHOFLAVONE) is “inactive; negative”.
